Data from patent US20250041363A1, “COMPOSITIONS AND METHODS FOR TREATMENT OF ALCOHOL USE DISORDER AND ALCOHOL-ASSOCIATED LIVER DISEASE” (UNIVERSITY OF LOUISVILLE RESEARCH FOUNDATION, INC., priority 2023, published 2025).

Legend:
Format in all cases: in vivo, human
[1] = system: patients with moderately severe acute alcohol associated hepatitis (mAH, MELD <21) with heavy alcohol drinking; assay: Double-blind placebo-controlled trial of LGG: liver injury, severity and progression markers; conditions: for INR / ABIC / MELD / Creatinine / Albumin / AST:ALT / Total Bilirubin / ALT / AST: LGG arm; for INR: baseline 1.453 ± 0.35; for ABIC: baseline 6.3 ± 1.26; for MELD: baseline 17.42 ± 1.79; for Creatinine: baseline 0.64 ± 0.17; for Albumin: baseline 2.7 ± 0.6; for AST:ALT: baseline 2.74 ± 1.54; for Total Bilirubin: baseline 7.2 ± 4.5; for ALT: baseline 73.7 ± 46.7; for AST: baseline 169.0 ± 88.4
Excerpt: (§1) We analyzed data from 46 participants in a large NIAAA-funded clinical trial performed at 4 medical centers (DASH Consortium). This investigation was a double-blind placebo-controlled study of patients with moderately severe acute alcohol associated hepatitis (mAH, MELD <21) who had pre-existing/ongoing heavy alcohol drinking, with clinical assessments at multiple time points. Data on demographics, drinking, and liver injury were collected and assessed at baseline (BL), 1-month (1-m), 3-months (3-m), and 6-months (6-m). Alcohol consumption was measured by baseline AUDIT, monthly alcohol use questionnaire; and liver injury was assessed by standard liver injury markers. All patients received standard medical management for liver disease and counseling for AUD in the standard of care protocol.

[2] = system: AUD patients; assay: Pilot study of LGG in AUD patients: heavy drinking markers; conditions: AUD patients treated for 6-months, preliminary results
[3] = system: patients with moderately severe acute alcohol associated hepatitis (mAH, MELD <21) with heavy alcohol drinking; assay: Double-blind placebo-controlled trial of LGG: alcohol consumption (monthly alcohol use questionnaire); conditions: for #Drinks (Weekly): LGG arm, baseline 34.71 ± 21.99
Excerpt: Conduct a pilot double-blind treatment trial identifying the dual therapeutic role of LGG in patients with comorbid AUD and moderate AH. Evaluate the therapeutic effects of LGG on lowering alcohol consumption over 6 months of treatment compared to placebo. Evaluate the therapeutic outcomes of LGG treatment on liver injury, progression and prognosis compared to placebo. Validate the central role of gut dysfunction in the altered gut-liver and gut-brain response in patients with AUD and moderate AH.
as §1

For Lactobacillus rhamnosus GG [LGG], the “1 month change in MELD, LGG arm compared to the placebo arm” value ([1]; 1 month, FIG. 2A) was “significantly dropped”, the “1 month change in ABIC score” value ([1]; 1 month, FIG. 2C, p=0.005) was “dropped significantly” and the “drop in the AST:ALT ratio, LGG arm compared to the placebo arm” value ([1]; FIG. 2B) was “significant”. The INR ([1]; 1 month, n = 17) was 1.32 ± 0.3 Unit Score, the ABIC ([1]; 1 month, n = 17) was 5.84 ± 1.2 Unit Score and the MELD ([1]; 1 month, n = 17) was 13.29 ± 4.34 Unit score. For the same substance, the Creatinine ([1]; 1 month, n = 18) was “.81 ± 0.5 mg/dL”, the Albumin ([1]; 1 month, n = 18) was 3.5 ± 0.8 g/dL and the “AST:ALT” value ([1]; 1 month, n = 18) was 1.99 ± 1.2. The “Total Bilirubin” value ([1]; 1 month, n = 18) was 2.54 ± 1.4 mg/dL, the ALT ([1]; 1 month, n = 18) was 43.6 ± 44.9 U/L and the AST ([1]; 1 month, n = 18) was 71.72 ± 59.9 U/L. For the same substance, the Creatinine ([1]; 3 month, n = 17) was 0.90 ± 0.4 mg/dL, the INR ([1]; 3 month, n = 17) was 1.31 ± 0.45 Unit Score and the Albumin ([1]; 3 month, n = 17) was 3.6 ± 0.9 g/dL. The “AST:ALT” value ([1]; 3 month, n = 17) was 1.7 ± 0.82, the ABIC ([1]; 3 month, n = 17) was 5.98 ± 1.5 Unit Score and the “Total Bilirubin” value ([1]; 3 month, n = 17) was 3.82 ± 8.3 mg/dL. For the same substance, the MELD ([1]; 3 month, n = 17) was 12.06 ± 7.73 Unit score, the ALT ([1]; 3 month, n = 17) was 33.39 ± 36.27 U/L and the AST ([1]; 3 month, n = 17) was 58.65 ± 51.9 U/L. For the same substance, the “Total Bilirubin” value ([1]; 6 month, n = 15) was 2.8 ± 3.84 mg/dL, the MELD ([1]; 6 month, n = 15) was 12.40 ± 8.4 Unit score and the Creatinine ([1]; 6 month, n = 16) was 0.88 ± 0.35 mg/dL. For the same substance, the INR ([1]; 6 month, n = 16) was 1.41 ± 0.69 Unit Score, the Albumin ([1]; 6 month, n = 16) was 4.01 ± 0.94 g/dL and the “AST:ALT” value ([1]; 6 month, n = 16) was 1.65 ± 0.97. It also gave an ABIC ([1]; 6 month, n = 16) of 6.08 ± 1.46 Unit Score, an ALT ([1]; 6 month, n = 16) of 38.75 ± 32.48 U/L and an AST ([1]; 6 month, n = 16) of 48.75 ± 25.20 U/L. For the same substance, the “biomarkers of liver injury progression and severity” value ([1]; LGG treatment, summary) was “significant reduction”, the heavy drinking markers [2] was “reduction of heavy drinking markers” and the “drinking level reached (social or abstinence level)” value ([3]; 6-month assessment, compared to placebo) was less than 4 drinks/week. For the same substance, the “change in average drinks/week in LGG arm compared to the placebo arm” value ([3]; 6-month assessment, p=0.0128) was “significant drop”, the “heavy drinking levels after treatment” value ([3]; 6 months of LGG treatment) was “reduced heavy drinking levels to the social drinking or abstinence levels” and the “#Drinks (Weekly)” value ([3]; 1 month, n = 23) was 1.81 ± 3.77. The “#Drinks (Weekly)” value ([3]; 3 month, n = 18) was 2.83 ± 7.71, the “#Drinks (Weekly)” value ([3]; 6 month, n = 16) was 0.31 ± 1.01 and the “lowering of alcohol consumption (average drinking/week) over 6 months within group” value ([3]; over 6 months, p≤0.001 in the LGG group) was “significant, with higher significance”. The “patients with reduction of alcohol drinks/week to the level of social drinking criteria” value ([3]; vs four of the 22 placebo, Fisher's exact test p=0.0012, Likelihood ratio=9.0) was “sixteen of the 24”.
